Where no end group is shown, it is not given here.
Tests used:
PC-3 cells = test: Cell growth of PC-3 cells, trypan blue exclusion count; type: cell-based, human
Description: FIGS. 3A-3D are graphs summarizing data on effects of antiestrogens and estrogens on cell growth of PC-3 cells. Cell growth assay was described in […]. (A) ICI. (B) 4OH-TAM. (C) 17β-estradiol. (D) DES. Columns, means; bars, S.D.; n=9; * ,p<0.001; #, p<0.01; +, p<0.05; compared to control (shaded column).
(§1) Cells were seeded at a density of 5×10^3 per ml into 24-well plates (Falcon, Becton Dickinson Labware, Lincoln Park, N.J.) in a final volume of 1 ml culture medium with 5% charcoal-stripped FBS. Twenty-four hours following seeding, triplicate wells of cells were treated in with 1 μM, 10 μM and 100 μM of estradiol-17β (E2), diethylstilbestrol (DES), 4′-hydroxytamoxifen (4OH-TAM) or ICI 182,780 (ICI). E2, DES, and 4OH-TAM were purchased from Sigma Co. (St. Louis, Mo.) and ICI was a gift from Zeneca Pharmaceuticals (Macclesfield, United Kingdom). Estrogens and antiestrogens were dissolved in absolute ethanol (Sigma Co., St. Louis, Mo.) and added to the media daily. Cell cultures not treated with estrogenic compounds received absolute ethanol as a vehicle control. Total additive ethanol concentrations never exceeded 0.2% throughout the culture period. The cells were re-fed with freshly prepared medium every other day. At the end of a 4-day treatment period, cells in each well were trypsinized and cell count determined by direct counting using the Trypan blue exclusion method. All treatment experiments were repeated at least three times to generate statistically relevant data.

DU145 cells [1] = test: Cell growth of DU145 cells, trypan blue exclusion count; type: cell-based, human; conditions: for effect on cell growth: 4-day exposure, vs vehicle control; for reduction in the cell numbers: 1 μM, 4 days, vs vehicle (absolute ethanol) control
Description: FIGS. 2A-2D are graphs summarizing data on effects of antiestrogens and estrogens on cell growth of DU145 cells. Cells (5×10^3 cells per well) were plated in triplicate wells onto a 24-well plate. After 24 hours for cell attachment, cells were treated for 4 days with antiestrogens [(A) ICI and (B) 4OH-TAM] or estrogens [(C) 17β-estradiol and (D) DES] at various concentrations as indicated. Cells treated with vehicle (absolute ethanol) were used as control. The number of viable cells at the end of 4 days of treatment was determined by the trypan blue exclusion method. Three individual experiments were performed. (Columns, means; bars, S.D.; n=9; *, p<0.001 compared to control (shaded column).
as §1

DU145 cells [2] = test: ICI-induced DU145 cell growth inhibition with ERβ antisense, sense or mismatch ODN; type: cell-based, human; conditions: ICI 1 μM, 4 days, no ODN
Description: FIG. 4 is a graph summarizing data on reduction of ICI-induced inhibition of DU145 cell growth by ERβ antisense oligonucleotide (ODN). Cells were treated with ICI at 10^−6 M for 4 days in the presence of 2.5 μM antisense, sense or mismatch ODNs. Columns, means; bars, S.D.; n=16; *,p<0.001 compared to control without ODN treatment.
DU145 cells (5×10^3 cells per well) were plated in 24 well-plates (Falcon, Becton Dickinson Labware, Lincoln Park, N.J.). After allowing 24 hours for cell attachment, cell cultures were treated in triplicate with 1 μM ICI in the presence of 2.5 μM ERβ antisense, sense or mismatch ODNs for 4 days. The ERβ antisense ODN, an 18-mer, was designed to recognize the first translation start site on the ERβ mRNA and its immediate 5′flanking region (Table 2, below). The nucleotide sequence of sense ODN is complementary to those of ERβ antisense ODN (Table 2). Based on the sequence of ERβ antisense ODN, 5 nucleotides were scrambled to generate a mismatch ODN that retains the same GC ratio of the ERβ antisense ODN (Table 2). Both the sense and the mismatch ODNs served as controls for the antisense ODN. In all three ODNs, the first and the last 3 nucleotides were phosphorothioate-modified to increase their stability in cellulo. Number of viable cells in each well was determined by direct counting using the Trypan blue exclusion method after a 4-day treatment period. […]

DU145 cells [3] = test: cDNA expression array of DU145 cells treated with ICI 182,780; type: cell-based, human; conditions: DU145, 12 hours
Description: cDNA array technology was used to identify genes whose expression is modulated by ICI 182,780 in DU145 cells. The DU-145 cells were treated for 12 hours with ICI 182,780, and total RNA was then isolated from treated cells and untreated controls. Following poly-(A)-RNA selection of these two population of total RNA, and DNase I digestion to remove contaminating DNA, the poly (A)-RNA pools were reversed-transcribed in the presence of P32 to produce radiolabeled cDNA probes. These radiolabeled cDNA probes were applied to an Atlas™ cDNA Expression Array (600 gene array, Clontech Laboratories, Inc, Palo Alto, Calif.) using the vendor's recommended protocol.

DU145 = test: Cell growth inhibition by Raloxifene and Resveratrol, DU145; type: cell-based, human
Excerpt: (§2) Raloxifene® and Resveratrol® may also be active tumor suppressing agents utilizing the ERβ pathways. […] Treatment protocols and dosages used were similar to those described above.

PC-3 M cells = test: Cell growth inhibition by Raloxifene and Resveratrol, PC-3 M; type: cell-based, human
Excerpt: as §2

recombinant ERβ protein = test: Competitive inhibition ELISA of GC-17 antibody; type: binding, human; conditions: peptide pre-incubated with GC-17 (1:6000); ERβC 4 mg-4 μg/ml, ERβN 4 mg/ml
Description: FIG. 5 is a graphic representation of the results of a competitive ELISA assay and illustrates the concentration-dependent competition of the immunizing peptide (ERβC) with a GC-17 antibody. […] The GC-17 antibodies, bound to recombinant ER-β protein on ELISA plates, were recognized by alkaline phosphatase conjugated anti-rabbit IgG antibodies. The whole complexes were visualized by incubation with p-nitrophenyl phosphate. The optical density at 405 nm was measured. The entire assay was done 4 times. The columns represent the standard deviation. w/o=GC-17 preincubated without peptide antigen.
The wells of an ELISA plate, PRO-BIND™ (Becton-Dickenson Labware, Franklin, N.J.) were coated with a recombinant protein composed of the entire ERβ sequence (PanVera, Madison, Wis.) at a concentration of 5 μg/ml. The GC17 antibody (1:6000) was then pre-incubated with the immunizing peptide at concentrations ranging from 4 mg-4 μg/ml at room temperature for 30 minutes. In addition, 4 mg of a control peptide encompassing sequences in the N-terminal region of ER-β (Research Genetics) was preincubated with the GC 17 antibody (1:6000) at room temperature for 1 hour. […] Results were quantified by optical density using the Microplate reader 550 (Bio-Rad, Richmond, Calif.). […]

ERβ = test: Competitive immunohistochemistry with GC-17 antibody; type: cell-based, human; conditions: sections of DU145 and LNCaP cells, 400 μg/ml or 40 μg/ml peptide
Excerpt: These cells were used to compliment and confirm that the GC-17 antibody reagent specifically detected ERβ but not ERα by immunohistochemical staining. Using the GC-17 antibody and the anti-ERα antibody (NCL-ER-6F11, Novacastra, Newcastle, UK) at the same dilutions as for tissue sections (see below), we carried out immunohistochemical studies on 10% formalin-fixed cytospins of DU145 and LNCaP cells that had been routinely processed, embedded in paraffin, sectioned at 5 μm and mounted on SuperFrost Plus™ slides (VWF Scientific, West Chester, Pa.).
Peptide competition studies were performed at the immunohistochemical level that approximated the conditions used in the ELISA assays described above. GC-17 antibody, at a dilution of 1:6000, was incubated with the immunizing ERβ peptide at concentrations of 400 μg and 40 μg at room temperature for 1 hour. In addition, competitive studies were conducted using ERα recombinant peptide (400 and 40 μg, Affinity Bioreagents Inc., Golden, Colo.) on DU145 cells. Incubation conditions and time were identical to those used for the ERβ peptide competition studies. Deparaffinized sections of DU145 and LNCaP cells and human prostate tissue were then incubated with these mixtures at room temperature for 1 hour. […]

Compound: C[C@]12CC[C@@H]3c4ccc(O)cc4CC[C@H]3[C@@H]1CC[C@@H]2O [E2, estradiol-17β]
- effect on cell growth (PC-3 cells; 1 μM, p<0.05): induced inhibition of cell growth
- effect on cell growth (PC-3 cells; 10 μM, p<0.01): induced inhibition of cell growth
- effect on cell growth (DU145 cells [1]): did not affect cell growth

Compound: C[C@]12CC[C@@H]3c4ccc(O)cc4C[C@@H](CCCCCCCCC[S+]([O-])CCCC(F)(F)C(F)(F)F)[C@H]3[C@@H]1CC[C@@H]2O (stereo partly drawn) [ICI 182,780]
- reduction in cell number (DU145 cells [2]): 40%
- Fold difference relative to control (DU145 cells [3]; gene: 5-hydroxytryptamine A1 receptor (E4h)): +6.6
- Fold difference relative to control (DU145 cells [3]; gene: BCL-2 related A1 protein (BFL-1)(C4H)): +9.6
- Fold difference relative to control (DU145 cells [3]; gene: Embryonic growth/differentiation factor (GDF-1)): +4.5
- Fold difference relative to control (DU145 cells [3]; gene: IFN-α/β receptor): +2.7
- Fold difference relative to control (DU145 cells [3]; gene: Interleukin-12 alpha chain (IL-12)(F6K)): +10.6
- Fold difference relative to control (DU145 cells [3]; gene: RYK receptor-like tyrosine kinase (E2c)): +3.6
- Fold difference relative to control (DU145 cells [3]; gene: TL1309): +2.7
- reduction in the cell numbers (DU145 cells [1]): 40%
- effect on cell growth (DU145 cells [1]): dose-dependent inhibition of cell numbers

Compound: CC/C(=C(\c1ccccc1)c1ccc(OCCN(C)C)cc1)c1ccc(O)cc1 [4OH-TAM, 4′-hydroxytamoxifen]
- reduction in the cell numbers (DU145 cells [1]): around 25%

Compound: O=C(c1ccc(OCCN2CCCCC2)cc1)c1c(-c2ccc(O)cc2)sc2cc(O)ccc12 [Raloxifene]
- efficacy compared (DU145): markedly better than that of Resveratrol and ICI
- inhibition of cell growth (DU145): marked inhibition of cell growth
- efficacy compared (PC-3 M cells): markedly better than that of Resveratrol and ICI
- inhibition of cell growth (PC-3 M cells): marked inhibition of cell growth

Compound: CC/C(=C(/CC)c1ccc(O)cc1)c1ccc(O)cc1 [DES, diethylstilbestrol]
- effect on cell growth (PC-3 cells; various concentrations): did not elicit statistically significant cell growth inhibition
- effect on cell growth (DU145 cells [1]): did not affect cell growth

Compound: Oc1ccc(C=Cc2cc(O)cc(O)c2)cc1 [Resveratrol]
- inhibition of cell growth (DU145): marked inhibition of cell growth
- inhibition of cell growth (PC-3 M cells): marked inhibition of cell growth

Compound: ERβC: immunizing peptide, C-terminus of ERβ (amino acids 449-465), 4-branch Multiple Antigenic Peptide (QQQSMRLANLLMLLSHV; also: 4-branch Multiple Antigenic Peptide)
- suppression of GC-17 binding to the recombinant protein (recombinant ERβ protein): successfully suppressed binding
- effect on nuclear staining by GC-17 (ERβ): totally abolished nuclear staining

Reference: patent US20020115117A1, “ERbeta-mediated gene expression” (priority 2000, published 2002)
